# Calls of active or inactive are those of the source. The calls are words filed in the database; no cut-off is given here.
# Tests used:
# MDA-MB-468 = experiment: Growth inhibition of human MDA-MB-468 cells assessed as cell viability measured after 4 days by WST8 assay; format: functional, cell-based; conditions: MDA-MB-468, 96 h
# BT-549 = experiment: Growth inhibition of human BT-549 cells assessed as cell viability measured after 4 days by WST8 assay; format: functional, cell-based; conditions: BT-549, 96 h
# MDA-MB-231 [1] = experiment: Growth inhibition of human MDA-MB-231 cells assessed as cell viability measured after 4 days by WST8 assay; format: functional, cell-based; conditions: MDA-MB-231, 96 h
# [2] = biological target: T1, Protein cereblon/Cyclin-dependent kinase 9 (Homo sapiens) (UniProt P50750+Q96SW2); experiment: Protac activity at CRBN/CDK9 in human MDA-MB-231 cells assessed as induction of degradation of CDK9 at 500 nM incubated for 8 hrs by Western blot analysis; format: cell-based
# T1 sequence (P50750 whole entry, looked up): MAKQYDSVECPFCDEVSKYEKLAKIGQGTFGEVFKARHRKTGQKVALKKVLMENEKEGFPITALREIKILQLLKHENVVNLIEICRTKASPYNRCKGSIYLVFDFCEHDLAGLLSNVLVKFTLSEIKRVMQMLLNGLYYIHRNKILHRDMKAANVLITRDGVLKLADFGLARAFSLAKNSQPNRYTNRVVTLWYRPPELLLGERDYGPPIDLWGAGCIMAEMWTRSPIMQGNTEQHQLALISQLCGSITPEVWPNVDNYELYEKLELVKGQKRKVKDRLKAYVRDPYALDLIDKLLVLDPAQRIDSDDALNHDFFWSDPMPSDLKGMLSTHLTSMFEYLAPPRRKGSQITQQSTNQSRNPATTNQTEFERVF
# T1 sequence (Q96SW2 whole entry, looked up): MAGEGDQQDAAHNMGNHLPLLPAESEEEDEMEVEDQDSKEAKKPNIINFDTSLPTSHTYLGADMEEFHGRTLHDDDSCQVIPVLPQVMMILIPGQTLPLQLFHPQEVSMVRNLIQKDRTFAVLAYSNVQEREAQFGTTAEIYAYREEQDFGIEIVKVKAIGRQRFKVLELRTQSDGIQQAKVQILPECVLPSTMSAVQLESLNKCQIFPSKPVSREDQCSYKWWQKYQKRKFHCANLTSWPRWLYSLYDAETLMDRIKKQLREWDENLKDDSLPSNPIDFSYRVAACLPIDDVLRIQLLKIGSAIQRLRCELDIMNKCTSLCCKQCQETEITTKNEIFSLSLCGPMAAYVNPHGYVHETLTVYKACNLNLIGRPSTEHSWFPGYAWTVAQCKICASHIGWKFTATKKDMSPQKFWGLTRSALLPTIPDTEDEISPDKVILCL
# [3] = biological target: T1, Protein cereblon/Cyclin-dependent kinase 9 (Homo sapiens); experiment: Protac activity at CRBN/CDK9 in human MDA-MB-231 cells assessed as induction of degradation of CDK9 at 500 nM measured after 2 hrs by Western blot analysis; format: cell-based
# [4] = biological target: T1, Protein cereblon/Cyclin-dependent kinase 9 (Homo sapiens); experiment: Protac activity at CRBN/CDK9 in human MDA-MB-231 cells assessed as induction of degradation of CDK9 measured after 4 to 8 hrs by Western blot analysis; format: cell-based; conditions: dose 0.01-2.5 µM, time 4-8 hrs
# [5] = biological target: T1, Protein cereblon/Cyclin-dependent kinase 9 (Homo sapiens); experiment: Protac activity at CRBN/CDK9 in human MDA-MB-231 cells assessed as induction of degradation of CDK9 pretreated with compound 44 at 500 nM incubated for 8 hrs by Western blot analysis; format: cell-based
# [6] = biological target: T1, Protein cereblon/Cyclin-dependent kinase 9 (Homo sapiens); experiment: Protac activity at CRBN/CDK9 in human MDA-MB-231 cells assessed as induction of degradation of CDK9 pretreated with thalidomide at 500 nM incubated for 8 hrs by Western blot analysis; format: cell-based
# [7] = biological target: T1, Protein cereblon/Cyclin-dependent kinase 9 (Homo sapiens); experiment: Protac activity at CRBN/CDK9 in human MDA-MB-231 cells assessed as induction of degradation of CDK9 pretreated with PR171 at 500 nM incubated for 8 hrs by Western blot analysis; format: cell-based
# [8] = biological target: T1, Protein cereblon/Cyclin-dependent kinase 9 (Homo sapiens); experiment: Protac activity at CRBN/CDK9 in human MDA-MB-231 cells assessed as induction of degradation of CDK9 pretreated with MLN4924 at 500 nM incubated for 8 hrs by Western blot analysis; format: cell-based
# [9] = biological target: Protein cereblon/Cyclin-dependent kinase 1 (Homo sapiens) (UniProt P06493+Q96SW2); experiment: Protac activity at CRBN/CDK1 in human MDA-MB-231 cells assessed as induction of degradation of CDK1 at 0.01 to 2.5 uM incubated for 4 to 8 hrs by Western blot analysis; format: cell-based; conditions: dose 0.01-2.5 µM, time 4-8 hrs
# Protein cereblon/Cyclin-dependent kinase 1 (Homo sapiens), sequence (P06493 whole entry, looked up): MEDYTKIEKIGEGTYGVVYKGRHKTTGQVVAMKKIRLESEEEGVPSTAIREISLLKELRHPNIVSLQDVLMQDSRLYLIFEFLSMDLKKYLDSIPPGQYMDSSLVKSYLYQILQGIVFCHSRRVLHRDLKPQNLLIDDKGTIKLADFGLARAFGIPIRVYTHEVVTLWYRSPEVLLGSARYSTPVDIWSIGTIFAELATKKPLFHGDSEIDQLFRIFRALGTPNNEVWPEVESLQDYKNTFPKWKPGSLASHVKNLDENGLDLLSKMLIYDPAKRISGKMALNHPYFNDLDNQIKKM
# Protein cereblon/Cyclin-dependent kinase 1 (Homo sapiens), sequence (Q96SW2 whole entry, looked up): as the sequence (Q96SW2 whole entry, looked up) above
# [10] = biological target: Protein cereblon/Cyclin-dependent kinase 2 (Homo sapiens) (UniProt P24941+Q96SW2); experiment: Protac activity at CRBN/CDK2 in human MDA-MB-231 cells assessed as induction of degradation of CDK2 at 0.01 to 2.5 uM incubated for 4 to 8 hrs by Western blot analysis; format: cell-based; conditions: dose 0.01-2.5 µM, time 4-8 hrs
# [11] = biological target: Protein cereblon/Cyclin-dependent kinase 4 (Homo sapiens) (UniProt P11802+Q96SW2); experiment: Protac activity at CRBN/CDK4 in human MDA-MB-231 cells assessed as induction of degradation of CDK4 at 0.01 to 2.5 uM incubated for 4 to 8 hrs by Western blot analysis; format: cell-based; conditions: dose 0.01-2.5 µM, time 4-8 hrs
# Protein cereblon/Cyclin-dependent kinase 4 (Homo sapiens), sequence (P11802 2-303 limits assumed): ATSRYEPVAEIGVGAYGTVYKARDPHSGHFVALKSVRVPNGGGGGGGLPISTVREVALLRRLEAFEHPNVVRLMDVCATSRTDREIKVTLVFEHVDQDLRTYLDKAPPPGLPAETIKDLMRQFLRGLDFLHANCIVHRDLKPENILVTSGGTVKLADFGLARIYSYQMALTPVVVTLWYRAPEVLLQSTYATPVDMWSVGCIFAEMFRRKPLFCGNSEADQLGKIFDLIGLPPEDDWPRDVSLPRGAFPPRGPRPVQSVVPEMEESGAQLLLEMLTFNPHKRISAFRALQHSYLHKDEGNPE
# Protein cereblon/Cyclin-dependent kinase 4 (Homo sapiens), sequence (Q96SW2 whole entry partner): as the sequence (Q96SW2 whole entry, looked up) above
# [12] = biological target: Protein cereblon/Cyclin-dependent kinase 5 (Homo sapiens) (UniProt Q00535+Q96SW2); experiment: Protac activity at CRBN/CDK5 in human MDA-MB-231 cells assessed as induction of degradation of CDK5 at 0.01 to 2.5 uM incubated for 4 to 8 hrs by Western blot analysis; format: cell-based; conditions: dose 0.01-2.5 µM, time 4-8 hrs
# Protein cereblon/Cyclin-dependent kinase 5 (Homo sapiens), sequence (Q00535 whole entry, looked up): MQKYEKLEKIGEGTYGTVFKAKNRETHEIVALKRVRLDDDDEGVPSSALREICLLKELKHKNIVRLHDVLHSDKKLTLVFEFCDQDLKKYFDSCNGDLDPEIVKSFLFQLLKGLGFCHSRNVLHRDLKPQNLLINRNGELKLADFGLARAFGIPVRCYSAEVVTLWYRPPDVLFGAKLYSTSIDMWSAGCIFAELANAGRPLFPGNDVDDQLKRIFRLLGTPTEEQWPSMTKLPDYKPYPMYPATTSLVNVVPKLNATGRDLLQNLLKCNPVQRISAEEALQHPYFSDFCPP
# Protein cereblon/Cyclin-dependent kinase 5 (Homo sapiens), sequence (Q96SW2 whole entry, looked up): as the sequence (Q96SW2 whole entry, looked up) above
# [13] = biological target: Protein cereblon/Cyclin-dependent kinase 6 (Homo sapiens) (UniProt Q00534+Q96SW2); experiment: Protac activity at CRBN/CDK6 in human MDA-MB-231 cells assessed as induction of degradation of CDK6 at 0.01 to 2.5 uM incubated for 4 to 8 hrs by Western blot analysis; format: cell-based; conditions: dose 0.01-2.5 µM, time 4-8 hrs
# Protein cereblon/Cyclin-dependent kinase 6 (Homo sapiens), sequence (Q00534 whole entry, looked up): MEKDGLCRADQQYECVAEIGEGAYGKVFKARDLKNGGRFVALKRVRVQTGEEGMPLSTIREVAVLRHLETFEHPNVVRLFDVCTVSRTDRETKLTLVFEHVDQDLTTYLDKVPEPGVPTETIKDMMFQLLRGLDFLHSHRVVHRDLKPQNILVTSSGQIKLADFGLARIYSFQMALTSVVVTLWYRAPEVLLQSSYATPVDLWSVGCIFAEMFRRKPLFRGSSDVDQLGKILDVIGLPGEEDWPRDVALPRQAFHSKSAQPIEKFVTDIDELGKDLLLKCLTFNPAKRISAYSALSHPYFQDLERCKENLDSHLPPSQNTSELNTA
# Protein cereblon/Cyclin-dependent kinase 6 (Homo sapiens), sequence (Q96SW2 whole entry, looked up): as the sequence (Q96SW2 whole entry, looked up) above
# [14] = biological target: Protein cereblon/Cyclin-dependent kinase 7 (Homo sapiens) (UniProt P50613+Q96SW2); experiment: Protac activity at CRBN/CDK7 in human MDA-MB-231 cells assessed as induction of degradation of CDK7 at 0.01 to 2.5 uM incubated for 4 to 8 hrs by Western blot analysis; format: cell-based; conditions: dose 0.01-2.5 µM, time 4-8 hrs
# Protein cereblon/Cyclin-dependent kinase 7 (Homo sapiens), sequence (P50613 whole entry, looked up): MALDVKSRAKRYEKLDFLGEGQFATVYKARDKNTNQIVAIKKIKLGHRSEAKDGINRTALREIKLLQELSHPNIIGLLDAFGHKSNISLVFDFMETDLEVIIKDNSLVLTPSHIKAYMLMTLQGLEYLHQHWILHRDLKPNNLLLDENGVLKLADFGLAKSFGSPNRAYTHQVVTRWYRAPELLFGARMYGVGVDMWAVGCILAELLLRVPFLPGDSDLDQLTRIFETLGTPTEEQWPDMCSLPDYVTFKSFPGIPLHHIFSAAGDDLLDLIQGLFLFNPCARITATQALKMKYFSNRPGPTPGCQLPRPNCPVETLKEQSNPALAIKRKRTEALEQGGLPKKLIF
# Protein cereblon/Cyclin-dependent kinase 7 (Homo sapiens), sequence (Q96SW2 whole entry, looked up): as the sequence (Q96SW2 whole entry, looked up) above
# MDA-MB-231 [15] = experiment: Downregulation of CDK9 mRNA expression in human MDA-MB-231 cells at 0.5 uM incubated for 4 hrs by RNA-seq analysis; format: functional, cell-based
# [16] = Downregulation of MCL1 gene expression in human MDA-MB-231 cells at 0.5 uM incubated for 4 hrs by quantitative RT-PCR based gene set enrichment analysis relative to control; format: functional
# [17] = Downregulation of MYC gene expression in human MDA-MB-231 cells at 0.5 uM incubated for 4 hrs by quantitative RT-PCR based gene set enrichment analysis relative to control; format: functional
# MDA-MB-231 [18] = experiment: Induction of apoptosis in human MDA-MB-231 cells assessed as apoptotic cells at 10 nM incubated for 48 hrs by Annexin V-FITC/PI analysis (reference value: 4.85%); format: functional
# MDA-MB-231 [19] = experiment: Induction of apoptosis in human MDA-MB-231 cells assessed as apoptotic cells at 100 nM incubated for 48 hrs by Annexin V-FITC/PI analysis (reference value: 4.85%); format: functional
# MDA-MB-231 [20] = experiment: Induction of apoptosis in human MDA-MB-231 cells assessed as apoptotic cells at 500 nM incubated for 48 hrs by Annexin V-FITC/PI analysis (reference value: 4.85%); format: functional
# [21] = Solubility of the compound; format: physicochemical
# [22] = biological target: Protein cereblon/Eukaryotic peptide chain release factor GTP-binding subunit ERF3A (Homo sapiens) (UniProt Q96SW2+P15170); experiment: Protac activity at CRBN/GSPT1 in human MDA-MB-231 cells assessed as induction of degradation of GSPT1 incubated for 4 to 8 hrs by Western blot analysis; format: cell-based; conditions: time 4-8 hrs
# Protein cereblon/Eukaryotic peptide chain release factor GTP-binding subunit ERF3A (Homo sapiens), sequence (P15170 whole entry, looked up): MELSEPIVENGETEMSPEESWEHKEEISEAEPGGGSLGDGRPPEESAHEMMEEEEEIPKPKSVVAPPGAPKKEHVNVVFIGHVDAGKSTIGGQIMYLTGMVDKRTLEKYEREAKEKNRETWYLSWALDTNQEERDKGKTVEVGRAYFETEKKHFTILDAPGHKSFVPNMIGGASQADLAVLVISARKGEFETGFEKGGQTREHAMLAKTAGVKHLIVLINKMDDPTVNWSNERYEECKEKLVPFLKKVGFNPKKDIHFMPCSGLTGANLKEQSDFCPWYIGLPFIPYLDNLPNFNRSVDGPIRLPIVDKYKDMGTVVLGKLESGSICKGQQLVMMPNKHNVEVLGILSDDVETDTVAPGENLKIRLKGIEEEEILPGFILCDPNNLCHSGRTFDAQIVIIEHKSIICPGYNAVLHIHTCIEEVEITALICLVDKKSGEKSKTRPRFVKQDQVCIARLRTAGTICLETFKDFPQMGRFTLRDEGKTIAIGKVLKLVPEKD
# Protein cereblon/Eukaryotic peptide chain release factor GTP-binding subunit ERF3A (Homo sapiens), sequence (Q96SW2 whole entry, looked up): as the sequence (Q96SW2 whole entry, looked up) above
# Tumour [23] = experiment: Induction of CDK9 degradation in tumor of human MDA-MB-231 cells xenografted in BALB/c mouse model at 0.15 mM intratumoral injection measured after 16 hrs by Western blot analysis relative to control; format: functional, Neoplasm
# Tumour [24] = experiment: Induction of CDK7 degradation in tumor of human MDA-MB-231 cells xenografted in BALB/c mouse model at 0.15 mM intratumoral injection measured after 16 hrs by Western blot analysis relative to control; format: functional, tissue-based; conditions: Neoplasm
smiles,measurement,setting,value
CC(C)c1cnn2c(NCc3ccc(NC(=O)CCCCCCCCCOc4cccc5c4CN(C4CCC(=O)NC4=O)C5=O)cc3)nc(OC3CCN(C)CC3)nc12 (centres undefined),IC50,MDA-MB-468,0.184 µM
same,IC50,BT-549,0.035 µM
same,IC50,MDA-MB-231 [1],0.137 µM
same,Activity,[2],Active
CC(C)c1cnn2c(NCc3ccc(NC(=O)CCCCCCCOc4cccc5c4C(=O)N(C4CCC(=O)NC4=O)C5=O)cc3)nc(OC3CCN(C)CC3)nc12 (centres undefined),IC50,MDA-MB-468,0.066 µM
same,IC50,BT-549,0.048 µM
same,IC50,MDA-MB-231 [1],0.051 µM
same,Activity,[2],Active
same,Activity,[3],100%
same,Activity,[4],Dose-Dependent Effect
same,Activity,[5],inactive
same,Activity,[6],inactive
same,Activity,[7],inactive
same,Activity,[8],inactive
same,Activity,[9],inactive
same,Activity,[10],inactive
same,Activity,[11],inactive
same,Activity,[12],inactive
same,Activity,[13],inactive
same,Activity,[14],inactive
same,Activity,MDA-MB-231 [15],inactive
same,inhibition at 0.5 µM,[16],59.6%
same,inhibition at 0.5 µM,[17],75.3%
same,Activity,MDA-MB-231 [18],6.39%
same,Activity,MDA-MB-231 [19],10.48%
same,Activity,MDA-MB-231 [20],26.49%
same,solubility,[21],Insoluble
same,Activity,[22],inactive
same,Activity,Tumour [23],26%
same,Activity,Tumour [24],inactive
CC(C)c1cnn2c(NCc3ccc(NC(=O)CCCCCCCCOc4cccc5c4C(=O)N(C4CCC(=O)NC4=O)C5=O)cc3)nc(OC3CCN(C)CC3)nc12 (centres undefined),IC50,MDA-MB-468,0.12 µM
same,IC50,BT-549,0.12 µM
same,IC50,MDA-MB-231 [1],0.13 µM
same,Activity,[2],Active
CC(C)c1cnn2c(NCc3ccc(NC(=O)CCCCCCOc4cccc5c4CN(C4CCC(=O)NC4=O)C5=O)cc3)nc(OC3CCN(C)CC3)nc12 (centres undefined),IC50,MDA-MB-468,0.53 µM
same,IC50,BT-549,0.47 µM
same,IC50,MDA-MB-231 [1],0.39 µM
same,Activity,[2],Active
CC(C)c1cnn2c(NCc3ccc(NC(=O)CCCCCCCCOc4cccc5c4CN(C4CCC(=O)NC4=O)C5=O)cc3)nc(OC3CCN(C)CC3)nc12 (centres undefined),IC50,MDA-MB-468,0.3 µM
same,IC50,BT-549,0.2 µM
same,IC50,MDA-MB-231 [1],0.17 µM
same,Activity,[2],Active
CC(C)c1cnn2c(NCc3ccc(NC(=O)CCCCCCCOc4cccc5c4CN(C4CCC(=O)NC4=O)C5=O)cc3)nc(OC3CCN(C)CC3)nc12 (centres undefined),IC50,MDA-MB-468,0.104 µM
same,IC50,BT-549,0.04 µM
same,IC50,MDA-MB-231 [1],0.072 µM
same,Activity,[2],Active
CC(C)c1cnn2c(NCc3ccc(NC(=O)CCCCCCOc4cccc5c4C(=O)N(C4CCC(=O)NC4=O)C5=O)cc3)nc(OC3CCN(C)CC3)nc12 (centres undefined),IC50,MDA-MB-468,0.18 µM
same,IC50,BT-549,0.17 µM
same,IC50,MDA-MB-231 [1],0.26 µM
same,Activity,[2],Active
CC(C)c1cnn2c(NCc3ccc(NC(=O)CCCCCCc4cccc5c4CN(C4CCC(=O)NC4=O)C5=O)cc3)nc(OC3CCN(C)CC3)nc12 (centres undefined),IC50,MDA-MB-468,0.13 µM
same,IC50,BT-549,0.23 µM
same,IC50,MDA-MB-231 [1],0.2 µM
same,Activity,[2],Active
